The text below walks through data of patent US8329617B2, “Compositions and methods for synergistic manipulation of plant and insect defenses” (Plant Bioscience Limited, priority 2007, dated 2012).

The test system of test [1] is Myzus persicae, US1L. The experiment in a line: Bioassay: M. persicae protein on four pepper plants treated with cis-jasmone and PBO (1, 5 or 10 adults per plant). The conditions noted are these: for Av. Total Insect Protein μg: Bioassay, M. persicae (US1L), average of weeks 1 to 3; for μg (Av) Total Protein (M. persicae): four pepper plants, 7 days. Type of test: in vivo. As to the method: (§1) In all bioassay experiments the control plants were sprayed with deionised water. Initially seven treatments were used (Table 1) to test all chemical variables. All treatments were applied hydraulically with a spray simulator after which the plants were separated according to treatment (with cis-jasmone controls being separated) and left for 2 hours prior to insect application.
Analysis of protein in each treatment was conducted using Bradford Reagent: the data were analysed using the computer programme ‘GraFit’ (Erithacus software, Berkeley). To calculate the calibration curve a single logarithmic curve was used with regression analysis taking the values of the treatment wells (averages of the three readings taken: technical replicates). […]
To investigate developmental/fecundity effects of cis-jasmone+/−PBO E on Myzus persicae when applied to sweet peppers, one adult was added to the plants. Aphids were brushed from all plants and each leaf checked individually to ensure none remained. The aphid mass for each treatment was assessed for total protein (total from all four plants in the treatment) using Bradford reagent. The amount of aphid protein present on the plants 7 days after treatment was measured.
Myzus persicae was applied to sweet peppers at the rate of five adults were added per plant. Aphids were brushed from all plants and each leaf checked individually to ensure none remained. The aphid mass for each treatment was assessed for total protein (total from all four plants in the treatment) using Bradford reagent. The amount of aphid protein present on the plants 7 days after treatment was measured (for further information see Example 3).
Myzus persicae were applied to sweet peppers at the rate of ten adults per plant. Aphids were brushed from all plants and each leaf checked individually to ensure none remained. The aphid mass for each treatment was assessed for total protein (total from all four plants in the treatment) using Bradford reagent. The amount of aphid protein present on the plants 7 days after treatment was measured (for further information see Example 3).

The test system of test [2] is Myzus persicae, US1L. The experiment in a line: Glasshouse simulator trial: M. persicae protein on pepper plants treated with cis-jasmone and PBO. Type of test: in vivo. The conditions noted are these: for μg (Av) Total Protein (M. persicae): simulator, 25 pepper plants per treatment, three adult apterous aphids per plant, 7 days. As to the method:
as §1
(§2) Analysis of protein in each treatment was conducted using Bradford Reagent: the data were analysed using the computer programme ‘GraFit’ (Erithacus software, Berkeley). To calculate the calibration curve a single logarithmic curve was used with regression analysis taking the values of the treatment wells (averages of the three readings taken: technical replicates).
To investigate developmental/fecundity effects of cis-jasmone+/−PBO (see Table 1) on Myzus persicae when applied to sweet peppers, adults were added to the plants and then using Bradford reagent, the amount of aphid protein present on the plants 7 days after treatment was measured. Esterase levels were also tested after the same interval to check for the possible induction of metabolic enzymes when using cis-jasmone. Aphids were brushed from all plants and each leaf checked individually to ensure none remained. The aphid mass for each treatment was weighed before total protein was assessed (total from all […] plants in the treatment).
Myzus persicae were applied to sweet peppers at the rate of three adults per plant. Aphids were brushed from all plants and each leaf checked individually to ensure none remained. The aphid mass for each treatment was assessed for total protein (total from all 25 plants in the treatment) using Bradford reagent. The amount of aphid protein present on the plants 7 days after treatment was measured. Plants were put into glasshouse simulators (one/treatment) and kept at 28° C., 12 L: […] and 80% R.H.

The subject of test [3] is Bemisia tabaci, GUA MIX. The experiment in a line: Bioassay: B. tabaci pupae protein on one tomato plant treated with cis-jasmone and PBO. Type of test: in vivo. The conditions noted are these: for μg (Av) Total Protein (B. tabaci pupae): one tomato plant, ten adult whiteflies, ~16 days. As to the method: as §1, §2
(§3) A new method for the investigation of the development of whitefly to the pupal stage on tomatoes and cotton was used. […] These were checked for protein after ˜16 days using Bradford reagent.
(§4) Adults were added to the plant 2 h after treatment, and removed after 24 h. The eggs laid were then left for 16-18 days until they reached the pupal stage. The total pupal protein on the plant was tested using the Bradford reagent.

Another test relates to B. tabaci. The experiment in a line: B. tabaci pupae protein on cotton plants treated with PBO and/or microencapsulated cis-jasmone. In kind it is in vivo, Bemisia tabaci. The conditions noted are these: five cotton plants per treatment, 5 adult female whiteflies per plant, ~16 days. As to the method: as §3, §4
Test [4] concerns Bemisia tabaci, GUA MIX. The experiment in a line: Glasshouse simulator trial: B. tabaci pupae protein on tomato plants treated with cis-jasmone and PBO. In kind it is in vivo. The conditions noted are these: for μg (Av) Total Protein (B. tabaci pupae): simulator, ten tomato plants per treatment, ten adult whiteflies per plant, ~16 days. As to the method:
as §1, §2, §3, §4
As described above 10 adult females were released on to each tomato plant, ten/treatment and after ˜16 days pupae were removed using a scalpel blade. These were checked for total protein using Bradford reagent. Plants were put into glasshouse simulators (one/treatment) and kept at 28° C., 12 L: […] and 80% R.H.

The next test has as its system whitefly (B. tabaci). Kind of test: Bioassay: B. tabaci pupae protein on cotton and tomato plants treated with BABA and/or PBO. The conditions noted are these: 3 mM BABA root drench, PBO E spray. Type of test: in vivo, Bemisia tabaci. The procedure:
In all bioassay experiments the control plants were sprayed with deionised water. Initially seven treatments were used (Table 1b) to test all chemical variables. […] Analysis of protein in each treatment was conducted using Bradford Reagent: the data were analysed using the computer programme ‘GraFit’ (Erithacus software, Berkeley). To calculate the calibration curve a single logarithmic curve was used with regression analysis taking the values of the treatment wells (averages of the three readings taken: technical replicates). Laboratory tests were undertaken to compare effects of combined and single treatments of PBO and BABA on control of aphid (M. persicae) on potato, pepper, and black mustard and whitefly (B. tabaci) on cotton and tomato. All tests included untreated and blank (water) controls, and both single and combined applications of PBO and BABA. […] Adults were added to the plant 2 days after treatment, and removed after 24 h. The eggs laid were then left for 16-18 days until they reached the pupal stage. The total pupal protein on the plant was tested using the Bradford reagent.

The test system of another test is aphid (M. persicae). Kind of test: Bioassay: M. persicae protein on potato, pepper and black mustard plants treated with BABA and/or PBO. The following applies: 3 adult apterous aphids per plant, 3 mM BABA root drench, PBO E spray, 7 days. In kind it is in vivo, Myzus persicae. As to the method: In all bioassay experiments the control plants were sprayed with deionised water. Initially seven treatments were used (Table 1b) to test all chemical variables. […] Analysis of protein in each treatment was conducted using Bradford Reagent: the data were analysed using the computer programme ‘GraFit’ (Erithacus software, Berkeley). To calculate the calibration curve a single logarithmic curve was used with regression analysis taking the values of the treatment wells (averages of the three readings taken: technical replicates). Laboratory tests were undertaken to compare effects of combined and single treatments of PBO and BABA on control of aphid (M. persicae) on potato, pepper, and black mustard and whitefly (B. tabaci) on cotton and tomato. All tests included untreated and blank (water) controls, and both single and combined applications of PBO and BABA. […] To investigate developmental/fecundity effects of BABA+/−PBO E (see Table 1) on Myzus persicae when applied to plants, adults were added to the plants and then using Bradford reagent, the amount of aphid protein present on the plants 7 days after treatment was measured. Esterase levels were also tested after the same interval to check for the possible induction of metabolic enzymes when using BABA. Aphids were brushed from all plants and each leaf checked individually to ensure none remained. The aphid mass for each treatment was weighed before total protein was assessed (total from all five plants in the treatment).

Another test has as its system first instar aphids. Kind of test: BABA root drench concentration series, aphid population growth on brassica and potato. The conditions noted are these: series 1-10 mM, aphids weighed after 1 week. In kind it is in vivo. The procedure: Using example crops of brassica [Brassica nigra] and potato [Solanum tuberosum]; BABA was added as a drench to the roots to ‘prime’ the plants in a series of concentrations (1-10 mM). The plants were artificially infested with a set number of first instar aphids (characterised as insecticide-resistant or -susceptible) and left for 1 week. At the end of this period, all aphids were removed and weighed to determine the growth of the population. This identified the optimal concentration of BABA to use to produce maximum secondary metabolites within the plant. All concentrations were lower than that which could cause direct damage to the crop. 3 mM BABA was identified as optimal for the conditions employed.

The subject of a further test is Aphis gossypii. The experiment in a line: A. gossypii protein on cotton plants treated with propyl gallate and cis-jasmone. The conditions noted are these: A. gossypii on cotton. In kind it is in vivo.
[5] abbreviates: five adult apterous aphids per plant, week 1.
The mark [6] stands for this setting: five adult apterous aphids per plant, week 2.
Where [7] appears, read: five adult apterous aphids per plant, week 3.
The mark [8] stands for this setting: one adult apterous aphid per plant, week 1.
The mark [9] stands for this setting: one adult apterous aphid per plant, week 2.
Setting [10] is: one adult apterous aphid per plant, week 3.
The mark [11] stands for this setting: ten adult apterous aphids per plant, week 1.
Where [12] appears, read: ten adult apterous aphids per plant, week 2.
The mark [13] stands for this setting: ten adult apterous aphids per plant, week 3.

Entries after “also recorded” stand apart in the source; their conditions may differ.

On to `CC/C=C\CC1=C(C)CCC1=O` [CJ, cis-jasmone], for which the “Av. Total Insect Protein μg” value is 7.690 µg with Myzus persicae, US1L [1] (1 adult/plant); 11.330 µg with Myzus persicae, US1L [1] (5 adults/plant); 25.210 µg in the test on Myzus persicae, US1L [1] (10 adults/plant); 13.842 µg in the test on Myzus persicae, US1L [2] (Simulator, M. persicae (US1L) on Pepper (BellBoy), average of weeks 1 to 3); 0.167 µg in the test on Bemisia tabaci, GUA MIX [3] (Bioassay, Bemisia tabaci (GUA MIX), average of weeks 1 to 3); 0.104 µg in the test with Bemisia tabaci, GUA MIX [4] (Simulator, Bemisia tabaci (GUA MIX) on Tomato (Carousel), average of weeks 1 to 3). Also, the “μg (Av) Total Protein (M. persicae)” value in the test on Myzus persicae, US1L [1] (setting [5]) amounted to 11.00 µg; in the test with Myzus persicae, US1L [1] (setting [6]), 11.99 µg; in the test with Myzus persicae, US1L [1] (setting [7]) it was 11.00 µg; in the test with Myzus persicae, US1L [1] (setting [8]), 11.00 µg; with Myzus persicae, US1L [1] (setting [9]), 3.27 µg; in the test with Myzus persicae, US1L [1] (setting [10]), 8.80 µg. In addition, the “μg (Av) Total Protein (M. persicae)” value was 25.14 µg in the test with Myzus persicae, US1L [1] (setting [11]); 25.4 µg with Myzus persicae, US1L [1] (setting [12]); 25.1 µg in the test with Myzus persicae, US1L [1] (setting [13]); 13.82 µg in the test on Myzus persicae, US1L [2] (week 1); 13.8 µg in the test on Myzus persicae, US1L [2] (week 2); 13.9 µg with Myzus persicae, US1L [2] (week 3). Further, the “μg (Av) Total Protein (B. tabaci pupae)” value in the test with Bemisia tabaci, GUA MIX [3] (week 1) was 0.1 µg; in the test on Bemisia tabaci, GUA MIX [3] (week 2), 0.2 µg; in the test on Bemisia tabaci, GUA MIX [3] (week 3), 0.2 µg; in the test on Bemisia tabaci, GUA MIX [4] (week 1), 0.109 µg; in the test with Bemisia tabaci, GUA MIX [4] (week 2), 0.102 µg; with Bemisia tabaci, GUA MIX [4] (week 3), 0.100 µg. In addition, the “Protein WF (Av)” value in the test with B. tabaci (week 1) turned out to be 0.03 µg; in the test with B. tabaci (week 2), 0.06 µg.
Consider “2-(2-butoxyethoxy)ethyl 6-propylpiperonyl ether [PBO T + Acetone]”, for which the “Av. Total Insect Protein μg” value in the test with Myzus persicae, US1L [1] (1 adult/plant) stood at 11.610 µg; with Myzus persicae, US1L [1] (5 adults/plant), 20.370 µg; in the test on Myzus persicae, US1L [1] (10 adults/plant), 34.830 µg. Also, the “μg (Av) Total Protein (M. persicae)” value came to 22.30 µg with Myzus persicae, US1L [1] (setting [5]); 16.50 µg with Myzus persicae, US1L [1] (setting [6]); 22.30 µg with Myzus persicae, US1L [1] (setting [7]); 12.23 µg with Myzus persicae, US1L [1] (setting [8]); 12.30 µg in the test on Myzus persicae, US1L [1] (setting [9]); 10.30 µg in the test on Myzus persicae, US1L [1] (setting [10]). Besides, the “μg (Av) Total Protein (M. persicae)” value in the test on Myzus persicae, US1L [1] (setting [11]) is 37.68 µg; with Myzus persicae, US1L [1] (setting [12]), 33.6 µg; in the test on Myzus persicae, US1L [1] (setting [13]), 33.2 µg.
As for `CC(N)CC(=O)O` (stereo not drawn) [BABA, beta aminobutyric acid], the “Protein WF (Av)” value was found to be 0.1 µg in the test on whitefly (B. tabaci) (cotton plants, ~16 days, week 1); 0.2 µg in the test with whitefly (B. tabaci) (cotton plants, ~16 days, week 2); 0.2 µg with whitefly (B. tabaci) (cotton plants, ~16 days, week 3); 0.1 µg with whitefly (B. tabaci) (tomato plants, week 1); 0.23 µg with whitefly (B. tabaci) (tomato plants, week 2); 0.15 µg with whitefly (B. tabaci) (tomato plants, week 3). The “Protein A (Av)” value in the test on aphid (M. persicae) (five black mustard plants, week 1) came out at 14.56 µg; in the test on aphid (M. persicae) (five black mustard plants, week 2) it was 15.10 µg; in the test with aphid (M. persicae) (five black mustard plants, week 3), 14.10 µg; in the test on aphid (M. persicae) (five pepper plants, week 1) it was 15.10 µg; in the test with aphid (M. persicae) (five pepper plants, week 2) it was 16.10 µg; with aphid (M. persicae) (five pepper plants, week 3) it was 15.00 µg. The “Protein A (Av)” value with aphid (M. persicae) (five potato plants, week 1) worked out at 7.80 µg; in the test with aphid (M. persicae) (five potato plants, week 2) it was 7.90 µg; in the test on aphid (M. persicae) (five potato plants, week 3), 8.30 µg. The “optimal concentration of BABA” value in the test with first instar aphids was determined as 3 mM.
`CCCOC(=O)c1cc(O)c(O)c(O)c1` [propyl gallate, Propyl 3,4,5-trihydroxybenzoate]: the “effect of propyl gallate on efficacy of microencapsulated cis-Jasmone (in words)” value in the test on Aphis gossypii was “significantly (p<0.05) improves the efficacy of microencapsulated cis-Jasmone; also recorded: potentiates microencapsulated cis-Jasmone at least as well as PBO”.
